# Experimental data from patent US10689343B2, “Inhibitors of tryptophan 2,3-dioxygenase” (NETHERLANDS TRANSLATIONAL RESEARCH CENTER B.V., priority 2016, dated 2020).
# Where “and” joins values, the source holds several entries; their conditions need not be identical. Equal entries are not always repeated. Where two headings read alike, the source gives them in different places.
# Assays:
# CYP3A4 [1] = target: T1, CYP3A4 (Homo sapiens, UniProt P08684)
# CYP2D6 [2] = target: T2, CYP2D6 (Homo sapiens, UniProt P10635)
# [3] = target: T3, TDO in SW48 colorectal carcinoma cells (Homo sapiens, UniProt P48775); test: Cell-based assay for TDO in SW48 colorectal carcinoma cells (NFK GreenScreen); conditions: 18 hours with L-tryptophan, read-out: IC50 on TDO in cells
# T3 construct: Endogenous expression of TDO has been determined in a variety of cancer cell lines; host or cells: SW48 colorectal carcinoma cells
# CYP3A4 [4] = target: T1, CYP3A4; test: P450-Glo CYP3A4 luciferin isopropylacetal (Luc-IP) assay
# Recombinant TDO = target: T4, Recombinant TDO (Homo sapiens, UniProt P48775); test: Biochemical assay for TDO (NFK GreenScreen); conditions: 50 nM TDO, 200 μM L-tryptophan
# T4 construct: Recombinant TDO (Seegers, N., et al.) and all other assay components were diluted in TDO reaction buffer
# Method in brief: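 Recombinant human TDO (50 nM) preincubated with compound 60 min at room temperature in 100 mM NaH2PO4 pH 7.0, 0.02% Tween-20, with ascorbic acid. Reaction then run 15 min with 200 μM L-tryptophan (final), 0.3% DMSO. NFK product detected by NFK Green fluorescence after 3 h at 37° C; IC50 derived.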
# CYP2D6 [5] = target: T2, CYP2D6; test: P450-Glo CYP2D6 Luc-IP assay
# [6] = target: T5, TDO expressed in mouse tumor cells (Mus musculus, UniProt P48776); conditions: immunocompetent mice; cited from earlier work
# T5 construct: host or cells: mouse tumor cells
# [7] = mice treated with LM10; cited from earlier work
# T1 sequence (P08684 whole entry): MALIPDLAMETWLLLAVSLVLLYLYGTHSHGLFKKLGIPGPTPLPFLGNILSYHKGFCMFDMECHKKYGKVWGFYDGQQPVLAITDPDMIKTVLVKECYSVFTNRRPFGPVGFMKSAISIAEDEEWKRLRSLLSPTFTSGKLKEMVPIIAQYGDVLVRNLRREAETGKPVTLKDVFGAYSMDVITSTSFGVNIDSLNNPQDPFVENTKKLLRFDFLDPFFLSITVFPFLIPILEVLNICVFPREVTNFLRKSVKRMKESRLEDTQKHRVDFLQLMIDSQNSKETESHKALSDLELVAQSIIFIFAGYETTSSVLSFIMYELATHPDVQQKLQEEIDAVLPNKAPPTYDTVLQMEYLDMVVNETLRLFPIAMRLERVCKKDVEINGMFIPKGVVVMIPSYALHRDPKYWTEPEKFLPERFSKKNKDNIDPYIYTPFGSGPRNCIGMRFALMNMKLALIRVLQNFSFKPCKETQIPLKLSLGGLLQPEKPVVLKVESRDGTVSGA
# T2 sequence (P10635 whole entry): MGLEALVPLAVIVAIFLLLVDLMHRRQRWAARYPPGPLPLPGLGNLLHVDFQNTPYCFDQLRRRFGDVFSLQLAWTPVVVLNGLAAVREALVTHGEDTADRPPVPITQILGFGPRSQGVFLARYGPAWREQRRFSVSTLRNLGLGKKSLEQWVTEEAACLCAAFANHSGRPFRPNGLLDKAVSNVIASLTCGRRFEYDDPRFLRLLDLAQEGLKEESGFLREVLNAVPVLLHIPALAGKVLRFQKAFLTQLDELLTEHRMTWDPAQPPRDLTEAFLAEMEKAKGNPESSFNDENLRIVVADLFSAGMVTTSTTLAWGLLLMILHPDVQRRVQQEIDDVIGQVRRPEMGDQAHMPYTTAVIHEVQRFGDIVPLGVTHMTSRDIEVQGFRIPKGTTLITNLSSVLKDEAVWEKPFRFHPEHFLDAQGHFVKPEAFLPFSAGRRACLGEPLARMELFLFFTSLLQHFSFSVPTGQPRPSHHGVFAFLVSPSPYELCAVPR
# T3 sequence (P48775 whole entry): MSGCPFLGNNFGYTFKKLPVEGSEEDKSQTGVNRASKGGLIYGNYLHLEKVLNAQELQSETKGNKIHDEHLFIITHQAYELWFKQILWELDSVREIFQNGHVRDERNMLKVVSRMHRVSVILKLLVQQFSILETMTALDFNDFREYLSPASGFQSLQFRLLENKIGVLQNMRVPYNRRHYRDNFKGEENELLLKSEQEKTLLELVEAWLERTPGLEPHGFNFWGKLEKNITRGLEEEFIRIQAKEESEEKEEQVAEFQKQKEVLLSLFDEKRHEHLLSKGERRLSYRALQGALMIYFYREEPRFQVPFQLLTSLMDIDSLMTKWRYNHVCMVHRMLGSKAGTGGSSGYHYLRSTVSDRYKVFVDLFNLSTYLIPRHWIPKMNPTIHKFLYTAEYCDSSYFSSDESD
# T4 sequence (P48775 whole entry): as above
# T5 sequence (P48776 whole entry): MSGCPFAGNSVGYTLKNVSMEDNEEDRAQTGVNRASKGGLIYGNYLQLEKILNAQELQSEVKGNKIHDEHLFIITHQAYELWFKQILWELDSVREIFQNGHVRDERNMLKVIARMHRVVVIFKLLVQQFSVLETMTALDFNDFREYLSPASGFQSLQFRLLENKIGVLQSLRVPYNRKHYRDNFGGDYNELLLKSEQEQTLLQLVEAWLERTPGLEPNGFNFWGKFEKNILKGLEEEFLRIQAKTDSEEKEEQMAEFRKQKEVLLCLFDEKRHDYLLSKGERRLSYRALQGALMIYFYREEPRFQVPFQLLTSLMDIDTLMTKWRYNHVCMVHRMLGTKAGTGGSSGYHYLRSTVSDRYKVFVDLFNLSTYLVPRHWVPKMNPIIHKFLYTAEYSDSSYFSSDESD
Molecule,IC50 (CYP3A4 [1]) [µM],IC50 (CYP2D6 [2]) [µM],IC50 [3],IC50 (CYP3A4 [4]) [µM],IC50 (Recombinant TDO) [µM],IC50 (CYP2D6 [5]) [µM],Effect on TDO-mediated prevention of tumor cell rejection [6],Signs of toxicity in the liver or any other organs [7]
N-cyclopropyl-4-(6-fluoro-1H-indol-3-yl)benzamide [Example 86],> 10,> 10,,,,,,
"N-(3,3-difluorocyclobutyl)-4-(6-fluoro-1H-indol-3-yl)benzamide [Example 114]",> 10,> 10,,,,,,
N-[3-(dimethylamino)propyl]-4-(6-fluoro-1H-indol-3-yl)benzamide [Example 8],> 10,> 10,,,,,,
N-(2-diethylaminoethyl)-4-(6-fluoro-1H-indol-3-yl)benzamide [Example 81],5 to 10,> 10,,,,,,
"CC(C)(O)CNC(=O)c1ccc(-c2c[nH]c3cc(F)ccc23)cc1 [Example 13, 4-(6-Fluoro-1H-indol-3-yl)-N-(2-hydroxy-2-methyl-propyl)benzamide]",,,≤ 0.5 µM and 0.2 to 0.5 µM,> 10,< 1,> 10,,
"O=C(NC1CCOCC1)c1ccc(-c2c[nH]c3cc(F)ccc23)cc1 [Example 44, 4-(6-Fluoro-1H-indol-3-yl)-N-tetrahydropyran-4-yl-benzamide]",,,≤ 0.5 µM and 0.2 to 0.5 µM,> 10,< 1,> 10,,
"O=C(N[C@@H]1CCCNC1)c1ccc(-c2c[nH]c3cc(F)ccc23)cc1 [Example 36, 4-(6-Fluoro-1H-indol-3-yl)-N-[(3R)-3-piperidyl]benzamide]",,,≤ 0.5 µM and 0.2 to 0.5 µM,> 10,< 1,> 10,,
"CN1CCN(CC(=O)Nc2ccc(-c3c[nH]c4cc(F)ccc34)cc2)CC1 [Example 109, N-[4-(6-fluoro-1H-indol-3-yl)phenyl]-2-(4-methylpiperazin-1-yl)acetamide]",,,≤ 0.5 µM and 0.2 to 0.5 µM,> 10,< 1,> 10,,
"CC(=O)NCCNC(=O)c1ccc(-c2c[nH]c3cc(F)ccc23)cc1 [Example 113, N-(2-acetamidoethyl)-4-(6-fluoro-1H-indol-3-yl)benzamide]",,,≤ 0.5 µM and 0.2 to 0.5 µM,> 10,1 to 5,> 10,,
"CN1CCC(NC(=O)c2ccc(-c3c[nH]c4cc(F)ccc34)cc2)CC1 [Example 24, 4-(6-Fluoro-1H-indol-3-yl)-N-(1-methyl-4-piperidyl)benzamide]",,,≤ 0.2 µM,> 10,< 1,> 10,,
"C[C@@H](CO)NC(=O)c1ccc(-c2c[nH]c3cc(F)ccc23)cc1Cl [Example 54, 2-Chloro-4-(6-fluoro-1H-indol-3-yl)-N-[(1S)-2-hydroxy-1-methyl-ethyl]benzamide]",,,≤ 0.2 µM,> 10,< 1,> 10,,
"O=C(NC1COC1)c1ccc(-c2c[nH]c3cc(F)ccc23)cc1 [Example 26, 4-(6-Fluoro-1H-indol-3-yl)-N-(oxetan-3-yl)benzamide]",,,≤ 0.5 µM and 0.2 to 0.5 µM,> 10,< 1,> 10,,
"O=C(N[C@H]1CCC[C@@H]1O)c1ccc(-c2c[nH]c3cc(F)ccc23)cc1 [Example 87, 4-(6-Fluoro-1H-indol-3-yl)-N-[(1S,2S)-2-hydroxycyclopentyl]benzamide]",,,≤ 0.5 µM and 0.2 to 0.5 µM,> 10,< 1,> 10,,
"CCN(CC)CC(C)NC(=O)c1ccc(-c2c[nH]c3cc(F)ccc23)cc1Cl (centres unmarked) [Example 73, 2-Chloro-N-[2-(diethylamino)-1-methyl-ethyl]-4-(6-fluoro-1H-indol-3-yl)benzamide]",,,≤ 0.2 µM,> 10,< 1,> 10,,
"C[C@H](NC(=O)c1ccc(-c2c[nH]c3cc(F)ccc23)cc1)c1nnc2ccccn12 [Example 45, 4-(6-Fluoro-1H-indol-3-yl)-N-[(1S)-1-([1,2,4]triazolo[4,3-a]pyridin-3-yl)ethyl]benzamide]",,,≤ 0.5 µM and 0.2 to 0.5 µM,5 to 10,1 to 5,> 10,,
"O=C(N[C@@H]1CCNC[C@@H]1F)c1ccc(-c2c[nH]c3cc(F)ccc23)cc1 [Example 74, 4-(6-Fluoro-1H-indol-3-yl)-N-[(3S,4R)-3-fluoro-4-piperidyl]benzamide]",,,≤ 0.2 µM,5 to 10,< 1,> 10,,
"CO[C@H]1CNCC[C@H]1NC(=O)c1ccc(-c2c[nH]c3cc(F)ccc23)cc1 [Example 43, 4-(6-Fluoro-1H-indol-3-yl)-N-[(3S,4R)-3-methoxy-4-piperidyl]benzamide]",,,≤ 0.5 µM and 0.2 to 0.5 µM,5 to 10,< 1,> 10,,
"C[C@H](CO)NC(=O)c1c(F)cc(-c2c[nH]c3cc(F)ccc23)cc1F [Example 56, 2,6-Difluoro-4-(6-fluoro-1H-indol-3-yl)-N-[(1R)-2-hydroxy-1-methyl-ethyl]benzamide]",,,≤ 0.5 µM and 0.2 to 0.5 µM,> 10,< 1,> 10,,
"CN(C)CCCNC(=O)c1c(F)cc(-c2c[nH]c3cc(F)ccc23)cc1F [Example 59, N-[3-(dimethylamino)propyl]-2,6-difluoro-4-(6-fluoro-1H-indol-3-yl)benzamide]",,,≤ 0.5 µM and 0.2 to 0.5 µM,> 10,< 1,> 10,,
"O=C(N[C@@H]1CN2CCC1CC2)c1ccc(-c2c[nH]c3cc(F)ccc23)cc1 [Example 20, 4-(6-Fluoro-1H-indol-3-yl)-N-[(3S)-quinuclidin-3-yl]benzamide]",,,≤ 0.2 µM,> 10,< 1,> 10,,
"O=C(NCCN1CCCC1)c1ccc(-c2c[nH]c3cc(F)ccc23)cc1 [Example 77, 4-(6-Fluoro-1H-indol-3-yl)-N-(2-pyrrolidin-1-ylethyl)benzamide]",,,≤ 0.2 µM,> 10,< 1,> 10,,
"C[C@H]1CNCC[C@H]1C(=O)Nc1ccc(-c2c[nH]c3cc(F)ccc23)cc1 [Example 110, (3R,4R)—N-[4-(6-fluoro-1H-indol-3-yl)phenyl]-3-methyl-piperidine-4-carboxamide]",,,≤ 0.5 µM and 0.2 to 0.5 µM,5 to 10,< 1,> 10,,
Fc1ccc2c(/C=C/c3nn[nH]n3)c[nH]c2c1 [LM10],,,,,,,reverted,did not show any signs of toxicity
"CC(CO)(CO)NC(=O)c1ccc(-c2c[nH]c3cc(F)ccc23)cc1 [Example 48, 4-(6-Fluoro-1H-indol-3-yl)-N-[2-hydroxy-1-(hydroxymethyl)-1-methyl-ethyl]benzamide]",,,≤ 0.5 µM and 0.2 to 0.5 µM,> 10,< 1,> 10,,
"COC[C@@H](C)NC(=O)c1ccc(-c2c[nH]c3cc(F)ccc23)cc1 [Example 17, 4-(6-Fluoro-1H-indol-3-yl)-N-[(1R)-2-methoxy-1-methyl-ethyl]benzamide]",,,≤ 0.5 µM and 0.2 to 0.5 µM,> 10,< 1,> 10,,
"COC(=O)C(NC(=O)c1ccc(-c2c[nH]c3cc(F)ccc23)cc1)C1CCNCC1 (centres unmarked) [Example 122, Methyl 2-[[4-(6-fluoro-1H-indol-3-yl)benzoyl]amino]-2-(4-piperidyl)acetate]",,,≤ 0.5 µM and 0.2 to 0.5 µM,5 to 10,< 1,> 10,,
"CN1CCC(NC(=O)c2ccc(-c3c[nH]c4cc(F)ccc34)cc2Cl)CC1 [Example 69, 2-Chloro-4-(6-fluoro-1H-indol-3-yl)-N-(1-methyl-4-piperidyl)benzamide]",,,≤ 0.2 µM,> 10,< 1,> 10,,
"C[C@@H](CO)NC(=O)c1c(F)cc(-c2c[nH]c3cc(F)ccc23)cc1F [Example 60, 2,6-Difluoro-4-(6-fluoro-1H-indol-3-yl)-N-[(1S)-2-hydroxy-1-methyl-ethyl]benzamide]",,,≤ 0.5 µM and 0.2 to 0.5 µM,> 10,< 1,> 10,,
"O=C(NN1CCOCC1)c1ccc(-c2c[nH]c3cc(F)ccc23)cc1 [Example 93, 4-(6-Fluoro-1H-indol-3-yl)-N-morpholino-benzamide]",,,≤ 0.5 µM and 0.2 to 0.5 µM,> 10,< 1,> 10,,
"CN1CCCC(NC(=O)c2ccc(-c3c[nH]c4cc(F)ccc34)cc2)C1 (centres unmarked) [Example 25, 4-(6-Fluoro-1H-indol-3-yl)-N-(1-methyl-3-piperidyl)benzamide]",,,≤ 0.2 µM,> 10,< 1,> 10,,
